pIC50: −log10 of the molar value. ≈ marks a conversion by molar mass, not a printed value.
Key:
[1] = tested on: Streptococcus pneumoniae; experiment: In vitro minimum inhibitory concentration against Streptococcus pneumoniae type III; type: functional
[2] = tested on: Staphylococcus aureus; experiment: In vitro minimum inhibitory concentration against Staphylococcus aureus Smith; type: functional
[3] = tested on: Escherichia coli; experiment: In vitro minimum inhibitory concentration against Escherichia coli NIHJ JC-2; type: functional
[4] = tested on: Pseudomonas aeruginosa; experiment: In vitro minimum inhibitory concentration against Pseudomonas aeruginosa IID1210; type: functional
[5] = biological target: DNA gyrase (Staphylococcus aureus, UniProt P0A0K8+P20831); experiment: Inhibitory concentration against DNA gyrase of Staphylococcus aureus; type: protein-complex assay

MIC [1] | MIC [2] | MIC [3] | MIC [4] | pIC50 [5] | Compound
12.5 µg/mL (≈ 34.2 µM) | 6.25 µg/mL (≈ 17.1 µM) | 0.1 µg/mL (≈ 0.274 µM) | 6.25 µg/mL (≈ 17.1 µM) |  | COc1c(N2CCC(N)C2)c(F)cc2c(=O)c(C(=O)O)cn(/C=C/F)c12 (centres undefined)
6.25 µg/mL (≈ 18.6 µM) | 1.56 µg/mL (≈ 4.65 µM) | 0.2 µg/mL (≈ 0.596 µM) | 3.13 µg/mL (≈ 9.33 µM) |  | NC1CCN(c2cc3c(cc2F)c(=O)c(C(=O)O)cn3/C=C/F)C1 (centres undefined)
3.13 µg/mL (≈ 9.33 µM) | 0.39 µg/mL (≈ 1.16 µM) | 0.05 µg/mL (≈ 0.149 µM) | 0.78 µg/mL (≈ 2.33 µM) |  | NC1CCN(c2cc3c(cc2F)c(=O)c(C(=O)O)cn3/C=C\F)C1 (centres undefined)
3.13 µg/mL (≈ 8.25 µM) | 0.39 µg/mL (≈ 1.03 µM) | 0.025 µg/mL (≈ 0.0659 µM) | 3.13 µg/mL (≈ 8.25 µM) |  | COc1c(N2CCN(C)CC2)c(F)cc2c(=O)c(C(=O)O)cn(/C=C\F)c12
3.13 µg/mL (≈ 8.52 µM) | 0.39 µg/mL (≈ 1.06 µM) | 0.025 µg/mL (≈ 0.0681 µM) | 1.56 µg/mL (≈ 4.25 µM) | 3.71 | CN1CCN(c2c(F)cc3c(=O)c(C(=O)O)cn(/C=C\F)c3c2F)CC1
0.78 µg/mL (≈ 2.21 µM) | 0.2 µg/mL (≈ 0.566 µM) | 0.05 µg/mL (≈ 0.142 µM) | 0.39 µg/mL (≈ 1.1 µM) |  | NC1CCN(c2c(F)cc3c(=O)c(C(=O)O)cn(/C=C\F)c3c2F)C1 (centres undefined)
3.13 µg/mL (≈ 8.96 µM) | 0.2 µg/mL (≈ 0.573 µM) | 0.025 µg/mL (≈ 0.0716 µM) | 1.56 µg/mL (≈ 4.47 µM) |  | CN1CCN(c2cc3c(cc2F)c(=O)c(C(=O)O)cn3/C=C\F)CC1
100 µg/mL (≈ 286 µM) | 3.13 µg/mL (≈ 8.96 µM) | 0.2 µg/mL (≈ 0.573 µM) | 6.25 µg/mL (≈ 17.9 µM) |  | CN1CCN(c2cc3c(cc2F)c(=O)c(C(=O)O)cn3/C=C/F)CC1
> 50 µg/mL | 12.5 µg/mL (≈ 34 µM) | 0.39 µg/mL (≈ 1.06 µM) | 12.5 µg/mL (≈ 34 µM) | 2.74 | CN1CCN(c2c(F)cc3c(=O)c(C(=O)O)cn(/C=C/F)c3c2F)CC1
12.5 µg/mL (≈ 35.4 µM) | 3.13 µg/mL (≈ 8.86 µM) | 0.2 µg/mL (≈ 0.566 µM) | 1.56 µg/mL (≈ 4.42 µM) |  | NC1CCN(c2c(F)cc3c(=O)c(C(=O)O)cn(/C=C/F)c3c2F)C1 (centres undefined)
1.56 µg/mL (≈ 4.27 µM) | 0.39 µg/mL (≈ 1.07 µM) | 0.0125 µg/mL (≈ 0.0342 µM) | 1.56 µg/mL (≈ 4.27 µM) |  | COc1c(N2CCC(N)C2)c(F)cc2c(=O)c(C(=O)O)cn(/C=C\F)c12 (centres undefined)
50 µg/mL (≈ 132 µM) | 6.25 µg/mL (≈ 16.5 µM) | 0.2 µg/mL (≈ 0.527 µM) | 25 µg/mL (≈ 65.9 µM) |  | COc1c(N2CCN(C)CC2)c(F)cc2c(=O)c(C(=O)O)cn(/C=C/F)c12
3.13 µg/mL (≈ 8.47 µM) | 0.39 µg/mL (≈ 1.06 µM) | 0.025 µg/mL (≈ 0.0677 µM) | 1.56 µg/mL (≈ 4.22 µM) | 3.73 | CN1CCN(c2c(F)cc3c(=O)c(C(=O)O)cn(CCF)c3c2F)CC1 [FLEROXACIN]

Compound | MIC [1] | MIC [2] | MIC [3] | MIC [4] | pIC50 [5]
O=C(O)c1cn(C2CC2)c2cc(N3CCNCC3)c(F)cc2c1=O [CIPROFLOXACIN] | 0.78 µg/mL (≈ 2.35 µM) | 0.2 µg/mL (≈ 0.604 µM) | ≤ 0.0063 µg/mL | 0.2 µg/mL (≈ 0.604 µM) | 

— ChEMBL document CHEMBL1143629, “Synthesis and antibacterial activity of 1-(2-fluorovinyl)-7-substituted-4-quinolone-3-carboxylic acid derivatives, conformationally restricted analogues of fleroxacin” (J Med Chem, 2005)
